According to patent US8921358B2, “Apoptosis signal-regulating kinase 1 inhibitors” (Takeda Pharmaceutical Company Limited, priority 2008, dated 2014):
Where a name gives a salt, the structure may show the parent alone.

Molecular target: T1, human ASK1 (Homo sapiens, UniProt Q99683)
T1 construct: a 2.2 kb DNA fragment containing an ASK1 gene was recovered from the gel; made in house; host or cells: Sf-21 insect cells, recombinant baculovirus (pFASTBAC1, Bac-to-Bac)
T1 sequence (Q99683 649-1374 limits assumed): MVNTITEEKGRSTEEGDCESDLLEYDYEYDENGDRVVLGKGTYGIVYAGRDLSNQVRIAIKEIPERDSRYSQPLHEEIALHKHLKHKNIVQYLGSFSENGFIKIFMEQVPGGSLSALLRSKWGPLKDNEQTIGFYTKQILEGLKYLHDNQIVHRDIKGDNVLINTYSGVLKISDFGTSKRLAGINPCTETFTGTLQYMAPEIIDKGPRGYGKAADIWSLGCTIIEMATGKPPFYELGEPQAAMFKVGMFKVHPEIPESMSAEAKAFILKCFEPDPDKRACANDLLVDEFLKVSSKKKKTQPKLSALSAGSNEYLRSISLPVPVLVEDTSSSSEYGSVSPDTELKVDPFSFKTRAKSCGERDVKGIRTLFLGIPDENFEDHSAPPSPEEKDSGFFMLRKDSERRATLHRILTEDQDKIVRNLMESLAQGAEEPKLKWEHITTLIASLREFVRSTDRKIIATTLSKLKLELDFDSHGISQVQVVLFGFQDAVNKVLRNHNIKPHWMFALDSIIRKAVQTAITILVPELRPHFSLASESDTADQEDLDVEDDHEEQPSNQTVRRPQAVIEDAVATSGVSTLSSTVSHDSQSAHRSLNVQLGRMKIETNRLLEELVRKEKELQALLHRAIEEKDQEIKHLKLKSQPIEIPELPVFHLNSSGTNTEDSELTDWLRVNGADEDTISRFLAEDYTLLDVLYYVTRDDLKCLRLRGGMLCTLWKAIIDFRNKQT
Assay: Scintillation assay measuring inhibition of ASK1 phosphorylation of myelin basic protein
Assay type: biochemical
Conditions: active ASK1 protein 30 ng, myelin basic protein 1 μg, [γ-32P]ATP, room temperature 30 min; values given as ranges; read-out: Enzyme Activity IC50

| IC50 | SMILES |
| --- | --- |
| > 1000 nM | Cc1cc2nc(N)cc(-c3cccc(CO)c3)n2n1 [Compound 173, (3-(5-amino-2-methylpyrazolo[1,5-a]pyrimidin-7-yl)phenyl)methanol] |
| > 1000 nM | Cc1ccc(-c2cc(N)nc3ccnn23)cc1 [Compound 174, 7-p-tolylpyrazolo[1,5-a]pyrimidin-5-amine] |
| > 1000 nM | Nc1cc(-c2cccs2)n2nccc2n1 [Compound 175, 7-(thiophen-2-yl) pyrazolo[1,5-a]pyrimidin-5-amine] |
| > 1000 nM | Nc1cc(-c2cccc(CO)c2)n2nccc2n1 [Compound 178, (3-(5-aminopyrazolo[1,5-a]pyrimidin-7-yl)phenyl)methanol] |
| < 100 nM | Cc1cc2nc(NC(=O)c3ccc(C(C)(C)O)cc3)cc(-c3ccccc3)n2n1 [Compound 202, 4-(2-hydroxypropan-2-yl)-N-(2-methyl-7-phenylpyrazolo[1,5-a]pyrimidin-5-yl)benzamide] |
| < 100 nM | Cc1cc2nc(NC(=O)c3ccc(C(C)(C)O)cc3)cc(N3CC[C@@H](O)C3)n2n1 [Compound 203, (R)-4-(2-hydroxypropan-2-yl)-N-(7-(3-hydroxypyrrolidin-1-yl)-2-methylpyrazolo[1,5-a]pyrimidin-5-yl)benzamide] |
| 100 to 1000 nM | Cc1cc2nc(NC(=O)c3ccc(C(C)(C)O)nc3)cc(-c3ccccc3)n2n1 [Compound 315, 6-(2-hydroxypropan-2-yl)-N-(2-methyl-7-phenylpyrazolo[1,5-a]pyrimidin-5-yl)nicotinamide] |
| < 100 nM | COc1ccc(-c2cc(NC(=O)c3ccc(C(C)(C)O)nc3)nc3cc(C)nn23)cc1 [Compound 338, 6-(2-hydroxypropan-2-yl)-N-(7-(4-methoxyphenyl)-2-methylpyrazolo[1,5-a]pyrimidin-5-yl)nicotinamide, trifluoroacetate salt] |
| < 100 nM | Cc1cc2nc(NC(=O)[C@@H]3C[C@H]3c3ccccc3)cc(-c3ccccc3)n2n1 [Compound 347, (1R,2R)—N-(2-Methyl-7-phenylpyrazolo[1,5-a]pyrimidin-5-yl)-2-phenylcyclopropanecarboxamide] |
| < 100 nM | CC(=O)NC1CCN(c2cc(NC(=O)[C@@H]3C[C@H]3c3ccccc3)nc3cc(C)nn23)CC1 [Compound 356, (1R,2R)—N-(7-(4-acetamidopiperidin-1-yl)-2-methylpyrazolo[1,5-a]pyrimidin-5-yl)-2-phenylcyclopropanecarboxamide] |
